This note sets out measurements from patent US10590129B2 (Incozen Therapeutics Pvt. Ltd., priority 2010, dated 2020).

This assay relates to MKN-45 cells. Put plainly: Inhibition of MKN-45 proliferation (MTT). Format: cell-based, human. The following applies: for inhibition at 0.1 µM / inhibition at 1 µM / GI50: Homo sapiens, MKN-45, MKN-45 proliferation; for inhibition at 0.1 µM / Inhibition (% Inhibition of MKN-45 proliferation): 0.1 μM. The procedure: Inhibition of MKN-45 Proliferation:
Cell proliferation assays were carried out using the high Met expressing human gastric adenocarcinoma cell line, MKN-45, according to the following schedule:
Day 1: Cells were plated in 96-well plates in complete growth medium.
Day 2: Compounds at desired concentrations were added.
Day 5: Cell viability was determined using the 3-[4,5-dimethylthiazol-2-yl]-2,5-diphenyltetrazolium bromide (MTT) dye reduction test.

Structures can show the parent of a compound that is named as a salt. Some results are limits rather than exact numbers.

In turn, `NCCCNC(=O)c1ccc(-c2ccc3nnn(Cc4ccc5ncccc5c4)c3n2)cc1F` [Ex 125, N-(3-Aminopropyl)-2-fluoro-4-(3-(quinolin-6-ylmethyl)-3H-[1,2,3]triazolo[4,5-b]pyridin-5-yl)benzamide dihydrochloride] gave an inhibition at 0.1 µM of less than 25%. This compound registered an inhibition at 1 µM (1 μM) of less than 25%. As for `CN(C)CCCNC(=O)c1ccc(-c2ccc3nnn(Cc4ccc5ncccc5c4)c3n2)cc1Cl` [Ex 126, 2-Chloro-N-(3-(dimethylamino)propyl)-4-(3-(quinolin-6-ylmethyl)-3H-[1,2,3]triazolo[4,5-b]pyridin-5-yl)benzamide dihydrochloride], the inhibition at 0.1 µM was 75 to 100%. Consider `Cl.O=C(Nc1nc[nH]n1)c1ccc(-c2ccc3nnn(Cc4ccc5ncccc5c4)c3n2)cc1F` [Ex 127, 2-Fluoro-4-(3-(quinolin-6-ylmethyl)-3H-[1,2,3]triazolo[4,5-b]pyridin-5-yl)-N-(1H-1,2,4-triazol-3-yl)benzamide hydrochloride], for which, under “1 μM”, the inhibition at 1 µM was 75 to 100%. Moreover, the “Inhibition (% Inhibition of MKN-45 proliferation)” value (MKN-45 proliferation) is “A (A = ≥75 to 100%)”. Compound `CCNC(=O)c1ccc(-c2ccc3nnn(Cc4cc5cccnc5cc4F)c3n2)cc1Cl` [Ex 133, 2-Chloro-N-ethyl-4-(3-((7-fluoroquinolin-6-yl)methyl)-3H-[1,2,3]triazolo[4,5-b]pyridin-5-yl)benzamide] yielded a 50% growth inhibitory concentration (GI50) of no more than 50 nM and an inhibition at 0.1 µM of 75 to 100%. With `COC(=O)c1ccc(-c2ccc3nnn(Cc4cc5cccnc5cc4F)c3n2)cc1F` [Ex 135, Methyl 2-fluoro-4-(3-((7-fluoroquinolin-6-yl)methyl)-3H-[1,2,3]triazolo[4,5-b]pyridin-5-yl)benzoate], the inhibition at 0.1 µM is less than 25%. `NC(=O)c1cccc(-c2ccc3nnn(Cc4ccc5ncccc5c4)c3n2)c1` [Ex 138, 3-(3-(Quinolin-6-ylmethyl)-3H-[1,2,3]triazolo[4,5-b]pyridin-5-yl)benzamide] returned an inhibition at 0.1 µM of 25 to 50%. The compound also came in with an inhibition at 1 µM (1 μM) of 75 to 100%. Take `Cl.NC(=O)c1ccc(-c2ccc3nnn(Cc4cc5cccnc5cc4F)c3n2)cc1F` [Ex 141, 2-Fluoro-4-(3-((7-fluoroquinolin-6-yl)methyl)-3H-[1,2,3]triazolo[4,5-b]pyridin-5-yl)benzamide hydrochloride]: the “Inhibition (% Inhibition of MKN-45 proliferation)” value (MKN-45 proliferation) was “A (A = ≥75 to 100%)”. For the setting “MKN-45 proliferation, 1 μM”, the “% inhibition @ 1 uM” value is reported as “A (A = ≥75 to 100%)”.

Turning to `Cc1cc(-c2ccc3nnn(Cc4ccc5ncccc5c4)c3n2)ccc1C(N)=O` [Ex 142, 2-Methyl-4-(3-(quinolin-6-ylmethyl)-3H-[1,2,3]triazolo[4,5-b]pyridin-5-yl)benzamide], the concentration for 50% growth inhibition (GI50) was in the range of 50 to 150 nM and the inhibition at 0.1 µM was 75 to 100%. For `c1cnc2ccc(Cn3nnc4ccc(-c5cn[nH]c5)nc43)cc2c1` [Ex 143, 6-((5-(1H-Pyrazol-4-yl)-3H-[1,2,3]triazolo[4,5-b]pyridin-3-yl)methyl)quinoline], the 50% growth inhibitory concentration (GI50) was 50 to 150 nM. As for `Cn1cc(-c2ccc3nnn(Cc4ccc5ncccc5c4)c3n2)cn1` [Ex 144, 6-((5-(1-Methyl-1H-pyrazol-4-yl)-3H-[1,2,3]triazolo[4,5-b]pyridin-3-yl)methyl)quinoline], the concentration for 50% growth inhibition (GI50) is 50 to 150 nM. For `Cc1n[nH]c2cc(-c3ccc4nnn(Cc5ccc6ncccc6c5)c4n3)ccc12` [Ex 168, 6-((5-(3-Methyl-1H-indazol-6-yl)-3H-[1,2,3]triazolo[4,5-b]pyridin-3-yl)methyl)quinoline], the concentration for 50% growth inhibition (GI50) lay within 150 to 500 nM. Same read-out and setting: the value for `c1cnc2ccc(Cn3nnc4ccc(-c5ccc6[nH]ccc6c5)nc43)cc2c1` [Ex 169, 6-((5-(1H-Indol-5-yl)-3H-[1,2,3]triazolo[4,5-b]pyridin-3-yl)methyl)quinoline] was less than 1000 nM; that for `c1cnc2ccc(Cn3nnc4ccc(-c5ccc6cc[nH]c6c5)nc43)cc2c1` [Ex 170, 6-((5-(1H-Indol-6-yl)-3H-[1,2,3]triazolo[4,5-b]pyridin-3-yl)methyl)quinoline] was less than 1000 nM. `Clc1cc(-c2ccc3nnn(Cc4ccc5ncccc5c4)c3n2)ccn1` [Ex 171, 6-((5-(2-Chloropyridin-4-yl)-3H-[1,2,3]triazolo[4,5-b]pyridin-3-yl)methyl)quinoline] yielded a GI50 of 150 to 500 nM.

In turn, `Cc1n[nH]c2ccc(-c3ccc4nnn(Cc5ccc6ncccc6c5)c4n3)cc12` [Ex 172, 6-((5-(3-Methyl-1H-indazol-5-yl)-3H-[1,2,3]triazolo[4,5-b]pyridin-3-yl)methyl)quinoline] returned a GI50 of less than 1000 nM. Same read-out and setting: the value for `c1cncc(-c2ccc3nnn(Cc4ccc5ncccc5c4)c3n2)c1` [Ex 173, 6-((5-(Pyridin-3-yl)-3H-[1,2,3]triazolo[4,5-b]pyridin-3-yl)methyl)quinoline] was less than 1000 nM; that for `c1cnc2ccc(Cn3nnc4ccc(-c5cnn([C@H]6CCNC6)c5)nc43)cc2c1` [Ex 175, (S)-6-((5-(1-(Pyrrolidin-3-yl)-1H-pyrazol-4-yl)-3H-[1,2,3]triazolo[4,5-b]pyridin-3-yl)methyl)quinoline hydrochloride] was 150 to 500 nM; that for `c1cnc2ccc(Cn3nnc4ccc(-c5cnn(CCN6CCOCC6)c5)nc43)cc2c1` [Ex 176, 4-(2-(4-(3-(Quinolin-6-ylmethyl)-3H-[1,2,3]triazolo[4,5-b]pyridin-5-yl)-1H-pyrazol-1-yl)ethyl)morpholine hydrochloride] was less than 1000 nM. In the case of `c1cnc2ccc(Cn3nnc4ccc(-c5cnn(C6CCOCC6)c5)nc43)cc2c1` [Ex 177, 6-((5-(1-(Tetrahydro-2H-pyran-4-yl)-1H-pyrazol-4-yl)-3H-[1,2,3]triazolo[4,5-b]pyridin-3-yl)methyl)quinoline], the GI50 was less than 1000 nM. As to `Cc1nn(C)c2cc(-c3ccc4nnn(Cc5ccc6ncccc6c5)c4n3)ccc12` [Ex 179, 6-((5-(1,3-dimethyl-1H-indazol-6-yl)-3H-[1,2,3]triazolo[4,5-b]pyridin-3-yl)methyl)quinoline], the GI50 fell in the range of 150 to 500 nM. With `CCc1nn(C(=O)OC(C)(C)C)c2cc(-c3ccc4nnn(Cc5ccc6ncccc6c5)c4n3)ccc12` [Ex 181, tert-Butyl 3-ethyl-6-(3-(quinolin-6-ylmethyl)-3H-[1,2,3]triazolo[4,5-b]pyridin-5-yl)-1H-indazole-1-carboxylate], the inhibition at 0.1 µM was less than 25%. Further, the inhibition at 1 µM (1 μM) was in the range of 75 to 100%.

In turn, `CC(C)(c1ccc2ncccc2c1)n1nnc2ccc(-c3cnn(CCO)c3)nc21` [Ex 190, 2-(4-(3-(2-(Quinolin-6-yl)propan-2-yl)-3H-[1,2,3]triazolo[4,5-b]pyridin-5-yl)-1H-pyrazol-1-yl)ethanol] displayed an inhibition at 0.1 µM of less than 25%. In addition, the inhibition at 1 µM (1 μM) was less than 25%. `CC(C)(c1ccc2ncccc2c1)n1nnc2ccc(-c3cn[nH]c3)nc21` [Ex 192, 6-(2-(5-(1H-Pyrazol-4-yl)-3H-[1,2,3]triazolo[4,5-b]pyridin-3-yl)propan-2-yl)quinoline]: the inhibition at 0.1 µM is less than 25%. The same compound gave an inhibition at 1 µM (1 μM) of less than 25%. For the compound `O=C(Cn1cc(-c2ccc3nnn(Cc4ccc5ncccc5c4)c3n2)cn1)N1CCCC1` [Ex 200, 1-(Pyrrolidin-1-yl)-2-(4-(3-(quinolin-6-ylmethyl)-3H-[1,2,3]triazolo[4,5-b]pyridin-5-yl)-1H-pyrazol-1-yl)ethanone], the inhibition at 0.1 µM is less than 25%. The compound `COCCn1cc(-c2ccc3nnn(Cc4ccc5ncccc5c4)c3n2)cn1` [Ex 201, 6-((5-(1-(2-Methoxyethyl)-1H-pyrazol-4-yl)-3H-[1,2,3]triazolo[4,5-b]pyridin-3-yl)methyl)quinoline] had an inhibition at 0.1 µM of less than 25%. On to `c1ccc(Nc2ccc3nnn(Cc4ccc5ncccc5c4)c3n2)cc1` [Ex 202, N-Phenyl-3-(quinolin-6-ylmethyl)-3H-[1,2,3]triazolo[4,5-b]pyridin-5-amine], for which the inhibition at 0.1 µM is less than 25%. `c1ccc(Oc2ccc3nnn(Cc4ccc5ncccc5c4)c3n2)cc1` [Ex 203, 6-((5-Phenoxy-3H-[1,2,3]triazolo[4,5-b]pyridin-3-yl)methyl)quinoline] displayed an inhibition at 0.1 µM of less than 25%. `NC(=O)c1cc(-c2ccc3nnn(Cc4ccc5ncccc5c4)c3n2)ccc1F` [Ex 206, 2-Fluoro-5-(3-(quinolin-6-ylmethyl)-3H-[1,2,3]triazolo[4,5-b]pyridin-5-yl)benzamide] returned an inhibition at 0.1 µM of 50 to 75%. The compound `NC(=O)c1ccc(-c2ccc3nnn(Cc4c(F)cc5ncccc5c4F)c3n2)cc1Cl` [Ex 207, 2-Chloro-4-(3-((5,7-difluoroquinolin-6-yl)methyl)-3H-[1,2,3]triazolo[4,5-b]pyridin-5-yl)benzamide] displayed a concentration for 50% growth inhibition (GI50) of no more than 50 nM and an inhibition at 0.1 µM of 75 to 100%.

For the compound `C/C(=N/NC(N)=O)c1ccc2nnn(Cc3ccc4ncccc4c3)c2n1` [Ex 209, 2-(1-(3-(Quinolin-6-ylmethyl)-3H-[1,2,3]triazolo[4,5-b]pyridin-5-yl)ethylidene) hydrazinecarboxamide], the GI50 was no more than 50 nM and the inhibition at 0.1 µM lay within 75 to 100%. The compound `NC(=O)c1ccc(-c2ccc3nnn(Cc4ccc5ncsc5c4)c3n2)cc1Cl` [Ex 210, 4-(3-(Benzo[d]thiazol-6-ylmethyl)-3H-[1,2,3]triazolo[4,5-b]pyridin-5-yl)-2-chlorobenzamide] gave a 50% growth inhibitory concentration (GI50) of no more than 50 nM and an inhibition at 0.1 µM of 75 to 100%. Compound `CC(C)(O)c1ccc(-c2ccc3nnn(Cc4ccc5ncccc5c4)c3n2)cc1F` [Ex 211, 2-(2-Fluoro-4-(3-(quinolin-6-ylmethyl)-3H-[1,2,3]triazolo[4,5-b]pyridin-5-yl)phenyl)propan-2-ol] gave a concentration for 50% growth inhibition (GI50) of 150 to 500 nM. Regarding `NC(=O)c1cc(-c2ccc3nnn(Cc4ccc5ncccc5c4)c3n2)ccc1Cl` [Ex 212, 2-Chloro-5-(3-(quinolin-6-ylmethyl)-3H-[1,2,3]triazolo[4,5-b]pyridin-5-yl)benzamide], the inhibition at 0.1 µM fell in the range of 75 to 100%. Under “1 μM”, the inhibition at 1 µM was in the range of 25 to 50%.

For orientation: inhibition means the share of the control response that was lost under treatment. In general, GI50 refers to the concentration that inhibits growth by half. A lower GI50 goes with greater sensitivity of the cells.
